According to patent US20100040617A1, “Method of Using CD100 (or Sema4D) to Mediate Platelet Activation and Inflammatory Responses” (Trustees of the University of Pennsylvania, priority 2004, published 2010):

Assays:
[1] = system: human platelets; experiment: ADP-induced platelet aggregation; type: cell-based
Protocol: FIG. 9A represents human platelets that were stimulated with a low concentration of ADP±soluble a soluble chimera of the extracellular domain of sema4D/CD100 fused to IgGκ Fc. FIG. 9B represents an immunoblot of FcCD100 that was performed under reducing and non-reducing conditions using anti-Fc.
Soluble sema4D/CD100 caused an increase in ADP-induced aggregation (FIG. 9). In this experiment, soluble sema4D/CD100 was added as a fusion protein (referred to as FcSema4D or FcCD100) in which the entire extracellular domain of sema4D/CD100 was fused to an IgG Fc domain. The protein forms a disulfide-linked homodimer capable of activating sema4D/CD100 receptors (Ishida, I., et al., Int Immunol, 2003. 15(8): p. 1027-34). FcCD100 had no effect when added on its own (not shown). […] Therefore, it appears that stimulating a receptor for sema4D/CD100 on platelets potentiates platelet responses to ADP. Additional platelet agonists (especially collagen) are going to be explored using platelet accumulation on collagen under flow as an additional endpoint.

[2] = target: T1, recombinant ADAM17 (Homo sapiens, UniProt P78536); experiment: Cleavage of Fc-sema4D by recombinant ADAM17; type: biochemical; conditions: recombinant ADAM17 lacking the pro domain (FIG. 11)
T1 construct: incubated with recombinant ADAM17 lacking the pro domain
Protocol: FIG. 11 represents the cleavage of sema4D by ADAM17. Recombinant ADAM17 was incubated with Fc-sema4D in which the extracellular domain of human sema4D was joined via a linker to the N-terminus of IgG1 Fc. Two fragments were detected by amido black protein staining (left), the smaller of which (fragment #1) was also detectable with anti-Fc, as was the intact protein (middle). The N-terminal sequence of fragment #1 was determined.
The cleavage site within platelet sema4D/CD100 was determined by using the C-terminal sema4D/CD100 antibody to immunoprecipitate the 25-30 kDa fragment that includes the transmembrane domain and any remaining extracellular domain. […]
In an effort to determine whether sema4D is a direct substrate for ADAM17, a chimeric protein comprised of the extracellular domain of human sema4D fused to the N-terminus of an IgG Fc domain fragment (Ishida et al. 2003. Int Immunol 15:1027-1034) was incubated with recombinant ADAM17 lacking the pro domain (Milla et al. 1999. J Biol Chem 274:30563-30570). […] It has been determined that in platelets, as in lymphocytes, the extracellular domain of sema4D/CD100 is shed as a disulfide-linked dimer.

[3] = system: sema4D/CD100; experiment: Rate of sema4D/CD100 cleavage in stirred, PMA-activated platelets; type: cell-based, human; conditions: fibrinogen binding and aggregation inhibited by the peptide (not shown)
Protocol: Washed platelets were stimulated with 100 nM PMA in an aggregometer cuvette at 37° C. with or without stirring. Lysates were precipitated and blotted with antibody Abm30. The extent of platelet aggregation in the stirred samples is indicated below each lane.
To address the issue of whether the rate of sema4D/CD100 cleavage is different when aggregation is allowed to occur than when activation occurs in the absence of aggregation, platelets were activated with or without the stirring needed for platelet aggregates to form. PMA caused a time-dependent loss of intact sema4D/CD100 and the appearance of the C-terminal sema4D/CD100 fragment. The rate of cleavage was accelerated when aggregation was allowed to occur (FIG. 3). Even at its fastest, however, cleavage lagged behind aggregation.
Platelet aggregation study also included the use of washed platelets were stimulated with 100 nM PMA in an aggregometer cuvette at 37° C. with or without stirring. Lysates were precipitated and blotted with antibody Abm30.

[4] = system: Akt; experiment: Akt phosphorylation (pAkt473 immunoblot) in human platelets; type: cell-based; conditions: immunoblot for pAkt473, absent in resting platelets (FIG. 7)
Protocol: FIG. 7 represents an immunoblot for pAkt473 from human platelets that were stimulated with recombinant sema4D or thrombin.
Activation of the PI 3-kinase pathway was measured using phosphorylation of Akt as a surrogate. Akt phosphorylation normally occurs in platelets activated by collagen and other agonists. Akt phosphorylation was also recently shown to occur in endothelial cells stimulated with soluble sema4D/CD100 (Basile, et al. Mol Cell Biol. […]: 6889, 2005). In endothelial cells responses to sema4D/CD100 appear to be mediated by plexin-B1. In FIG. 7, human platelets were stimulated with a His-tagged protein corresponding to the human sema4D/CD100 exodomain. Platelet lysates were prepared and immunoblotted with an antibody specific for pAkt473. Thrombin was used as a positive control.

[5] = system: sema4D/CD100; experiment: sema4D/CD100 cleavage in activated platelets (immunoblot with Abm30); type: cell-based, human; conditions: for cleavage of sema4D/CD100: platelets stimulated with 100 nM PMA at 37° C. for 30 min, 20 μM TAPI-2 preincubated for 60 min (FIG. 4A), EDTA not shown
Description: (§1) FIG. 4 represents the effect of metalloprotease inhibitors on sema4D expression. […] Sema4D was precipitated and blotted with Abm30. Ig light and heavy chains are indicated.
(§2) The observation that sema4D/CD100 cleavage occurs in washed platelets implies that the protease involved is intrinsic to the platelets and not a plasma protein. Platelets are known to contain a number of metalloproteases, including members of the MMP and ADAM families (Sheu, J. R., et al., Br J Pharmacol, 2004. 143(1): p. 193-201. Sawicki, G., et al., Nature, 1997. 386: p. 616-619. Sawicki, G., et al., Thromb. Haemost., 1998. 80: p. 836-839. Colciaghi, F., et al., Mol Med, 2002. 8(2): p. 67-74.).

[6] = system: monocytes; conditions: cited from earlier work
[7] = system: sema4D/CD100; experiment: sema4D/CD100 surface expression on platelets by FACS; type: cell-based, human; conditions: platelets stimulated with PMA for 15 min or 60 min, FACS (FIG. 4B)
Protocol: as §1
Surface expression of sema4D/CD100 was detected by FACS using an antibody that recognizes the extracellular domain. Expression increased when the platelets were activated with PMA for 15 minutes (FIG. 1C). In contrast, the α-granule membrane protein, P-selectin, was detected only on activated platelets.
as §2

T1 sequence (P78536 215-824): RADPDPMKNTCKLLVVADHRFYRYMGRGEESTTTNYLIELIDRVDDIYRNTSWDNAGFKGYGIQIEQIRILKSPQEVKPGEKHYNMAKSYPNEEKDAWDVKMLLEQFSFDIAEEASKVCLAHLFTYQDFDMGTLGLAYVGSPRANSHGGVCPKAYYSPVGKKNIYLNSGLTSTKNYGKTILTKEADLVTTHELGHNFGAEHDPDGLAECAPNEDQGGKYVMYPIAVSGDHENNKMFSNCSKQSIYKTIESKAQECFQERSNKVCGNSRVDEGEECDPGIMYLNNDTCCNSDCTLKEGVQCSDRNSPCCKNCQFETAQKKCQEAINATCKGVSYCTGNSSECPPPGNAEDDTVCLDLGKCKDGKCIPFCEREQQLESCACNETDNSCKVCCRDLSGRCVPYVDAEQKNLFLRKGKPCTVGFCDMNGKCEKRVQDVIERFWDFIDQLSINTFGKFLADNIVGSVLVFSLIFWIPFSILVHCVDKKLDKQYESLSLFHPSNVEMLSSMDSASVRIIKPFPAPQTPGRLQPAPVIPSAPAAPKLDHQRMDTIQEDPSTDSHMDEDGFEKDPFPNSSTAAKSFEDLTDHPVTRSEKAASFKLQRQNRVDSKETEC

Compound: FcCD100: fusion protein in which the entire extracellular domain of sema4D/CD100 was fused to an IgG Fc domain; disulfide-linked homodimer
- platelet aggregation in the presence of ADP ([1]; low concentration of ADP (FIG. 9)): caused an increase in platelet aggregation
- platelet aggregation, added on its own ([1]; no ADP (not shown)): no effect
- cleavage by recombinant ADAM17 [2]: Cleavage produced two identifiable fragments

Compound: RGDS
- rate of sema4D/CD100 cleavage [3]: the rate of cleavage became more like that seen when the platelets were activated without stirring

Compound: thrombin
- pAkt in platelet lysates [4]: readily detectable

Compound: CNC(=O)[C@H](Cc1c[nH]c2ccccc12)NC(=O)[C@@H](CC(=O)NO)CC(C)C [GM6001]
- cleavage of sema4D/CD100 [5]: inhibited

Compound: soluble sema4D/CD100: in FIG. 7 a His-tagged protein corresponding to the human sema4D/CD100 exodomain
- pAkt in platelet lysates [4]: readily detectable
- half-maximal effects on monocytes [6]: 5 to 10 ng/mL
- maximal effects on monocytes [6]: 40 to 50 ng/mL

Compound: O=C(O)CN(CCN(CC(=O)O)CC(=O)O)CC(=O)O [EDTA]
- cleavage of sema4D/CD100 [5]: inhibited

Compound: CC(C)C[C@H](CC(=O)NO)C(=O)N[C@H](C(=O)N[C@@H](C)C(=O)NCCN)C(C)(C)C [TAPI-2]
- sema4D/CD100 cleavage ([5]; platelets activated by thrombin or SFLLRN (not shown)): abolished
- cleavage of sema4D/CD100 [5]: inhibited
- loss of sema4D/CD100 surface expression [7]: prevented the loss of surface expression
